Results published in patent US11542235B2, “Herbicidal 3-azaspiro[5.5] undecane-8, 10-dione compounds” (SYNGENTA PARTICIPATIONS AG, priority 2018, dated 2023).

Key:
Format in all cases: in vivo
Lolium perenne (LOLPE) = assay: Glasshouse herbicidal test, pre- and post-emergence, Lolium perenne; conditions: 250 g/h, evaluated after 13 days, five point scale; for percentage damage caused to the plant, LOLPE POST: post-emergence; for percentage damage caused to the plant, LOLPE PRE: pre-emergence
Description: (§1) Seeds of a variety of test species are sown in standard soil in pots (Lolium perenne (LOLPE), Setaria faberi (SETFA), Alopecurus myosuroides (ALOMY), Echinochloa crus-galli (ECHCG), Avena fatua (AVEFA)). After cultivation for one day (pre-emergence) or after 8 days cultivation (post-emergence) under controlled conditions in a glasshouse (at 24/16° C., day/night; 14 hours light; 65% humidity), the plants are sprayed with an aqueous spray solution derived from the formulation of the technical active ingredient in acetone/water (50:50) solution containing 0.5% Tween 20 (polyoxyethelyene sorbitan monolaurate, CAS RN 9005-64-5). Compounds are applied at […]. The test plants are then grown in a glasshouse under controlled conditions in a glasshouse (at 24/16° C., day/night; 14 hours light; 65% humidity) and watered twice daily. After 13 days for pre and post-emergence, the test is evaluated for the percentage damage caused to the plant. The biological activities are shown in the following table on a five point scale (5=80-100%; 4=60-79%; 3=40-59%; 2=20-39%; 1=0-19%).

Setaria faberi (SETFA) = assay: Glasshouse herbicidal test, pre- and post-emergence, Setaria faberi; conditions: 250 g/h, evaluated after 13 days, five point scale; for percentage damage caused to the plant, SETFA POST: post-emergence; for percentage damage caused to the plant, SETFA PRE: pre-emergence
Description: as §1

[1] = tested on: Alopecurus myosuroides (ALOMY); assay: Glasshouse herbicidal test, pre- and post-emergence, Alopecurus myosuroides; conditions: 250 g/h, evaluated after 13 days, five point scale; for percentage damage caused to the plant, ALOMY POST: post-emergence; for percentage damage caused to the plant, ALOMY PRE: pre-emergence
Description: as §1

[2] = tested on: Echinochloa crus-galli (ECHCG); assay: Glasshouse herbicidal test, pre- and post-emergence, Echinochloa crus-galli; conditions: 250 g/h, evaluated after 13 days, five point scale; for percentage damage caused to the plant, ECHCG POST: post-emergence; for percentage damage caused to the plant, ECHCG PRE: pre-emergence
Description: as §1

Avena fatua (AVEFA) = assay: Glasshouse herbicidal test, pre- and post-emergence, Avena fatua; conditions: 250 g/h, evaluated after 13 days, five point scale; for percentage damage caused to the plant, AVEFA POST: post-emergence; for percentage damage caused to the plant, AVEFA PRE: pre-emergence
Description: as §1

CC#Cc1cc(OC)c(C2C(=O)CC3(CCN(OC)CC3)CC2=O)c(OC)c1 [Compound A4]
5 (5=80-100%): percentage damage caused to the plant, LOLPE POST (Lolium perenne (LOLPE)) | percentage damage caused to the plant, LOLPE PRE (Lolium perenne (LOLPE)) | percentage damage caused to the plant, SETFA POST (Setaria faberi (SETFA)) | percentage damage caused to the plant, SETFA PRE (Setaria faberi (SETFA)) | percentage damage caused to the plant, ALOMY POST [1] | percentage damage caused to the plant, ALOMY PRE [1] | percentage damage caused to the plant, ECHCG POST [2] | percentage damage caused to the plant, ECHCG PRE [2] | percentage damage caused to the plant, AVEFA POST (Avena fatua (AVEFA)) | percentage damage caused to the plant, AVEFA PRE (Avena fatua (AVEFA))

CC#Cc1cc(C)c(C2C(=O)CC3(CCN(C(=O)C(F)F)CC3)CC2=O)c(C)c1 [Compound A6]
5 (5=80-100%): percentage damage caused to the plant, LOLPE POST (Lolium perenne (LOLPE)) | percentage damage caused to the plant, LOLPE PRE (Lolium perenne (LOLPE)) | percentage damage caused to the plant, SETFA POST (Setaria faberi (SETFA)) | percentage damage caused to the plant, SETFA PRE (Setaria faberi (SETFA)) | percentage damage caused to the plant, ALOMY POST [1] | percentage damage caused to the plant, ALOMY PRE [1] | percentage damage caused to the plant, ECHCG POST [2] | percentage damage caused to the plant, ECHCG PRE [2] | percentage damage caused to the plant, AVEFA POST (Avena fatua (AVEFA)) | percentage damage caused to the plant, AVEFA PRE (Avena fatua (AVEFA))

CC#Cc1cc(C)c(C2=C(O)CC3(CCN(C(C)=O)CC3)CC2=O)c(C)c1 [Compound A17]
5 (5=80-100%): percentage damage caused to the plant, LOLPE POST (Lolium perenne (LOLPE)) | percentage damage caused to the plant, LOLPE PRE (Lolium perenne (LOLPE)) | percentage damage caused to the plant, SETFA POST (Setaria faberi (SETFA)) | percentage damage caused to the plant, SETFA PRE (Setaria faberi (SETFA)) | percentage damage caused to the plant, ALOMY POST [1] | percentage damage caused to the plant, ALOMY PRE [1] | percentage damage caused to the plant, ECHCG POST [2] | percentage damage caused to the plant, ECHCG PRE [2] | percentage damage caused to the plant, AVEFA POST (Avena fatua (AVEFA)) | percentage damage caused to the plant, AVEFA PRE (Avena fatua (AVEFA))

CC#Cc1cc(C)c(C2C(=O)CC3(CCN(C(=O)C(F)F)CC3)CC2=O)c(OC)c1 [Compound A19]
5 (5=80-100%): percentage damage caused to the plant, LOLPE POST (Lolium perenne (LOLPE)) | percentage damage caused to the plant, LOLPE PRE (Lolium perenne (LOLPE)) | percentage damage caused to the plant, SETFA POST (Setaria faberi (SETFA)) | percentage damage caused to the plant, SETFA PRE (Setaria faberi (SETFA)) | percentage damage caused to the plant, ALOMY POST [1] | percentage damage caused to the plant, ALOMY PRE [1] | percentage damage caused to the plant, ECHCG PRE [2] | percentage damage caused to the plant, AVEFA POST (Avena fatua (AVEFA)) | percentage damage caused to the plant, AVEFA PRE (Avena fatua (AVEFA))

CC#Cc1cc(C)c(C2C(=O)CC3(CCN(OC)CC3)CC2=O)c(C)c1 [Compound A8]
5 (5=80-100%): percentage damage caused to the plant, LOLPE POST (Lolium perenne (LOLPE)) | percentage damage caused to the plant, LOLPE PRE (Lolium perenne (LOLPE)) | percentage damage caused to the plant, SETFA POST (Setaria faberi (SETFA)) | percentage damage caused to the plant, SETFA PRE (Setaria faberi (SETFA)) | percentage damage caused to the plant, ALOMY POST [1] | percentage damage caused to the plant, ALOMY PRE [1] | percentage damage caused to the plant, ECHCG POST [2] | percentage damage caused to the plant, ECHCG PRE [2] | percentage damage caused to the plant, AVEFA POST (Avena fatua (AVEFA)) | percentage damage caused to the plant, AVEFA PRE (Avena fatua (AVEFA))

CC#Cc1cc(C)c(C2C(=O)CC3(CCN(C(=O)C(F)(F)C(F)F)CC3)CC2=O)c(C)c1 [Compound A29]
5 (5=80-100%): percentage damage caused to the plant, LOLPE POST (Lolium perenne (LOLPE)) | percentage damage caused to the plant, LOLPE PRE (Lolium perenne (LOLPE)) | percentage damage caused to the plant, SETFA POST (Setaria faberi (SETFA)) | percentage damage caused to the plant, SETFA PRE (Setaria faberi (SETFA)) | percentage damage caused to the plant, ALOMY POST [1] | percentage damage caused to the plant, ALOMY PRE [1] | percentage damage caused to the plant, ECHCG POST [2] | percentage damage caused to the plant, ECHCG PRE [2] | percentage damage caused to the plant, AVEFA POST (Avena fatua (AVEFA)) | percentage damage caused to the plant, AVEFA PRE (Avena fatua (AVEFA))

CC#Cc1cc(C)c(C2=C(OC(=O)SC(C)C)CC3(CCN(C(C)=O)CC3)CC2=O)c(C)c1 [Compound P14]
5 (5=80-100%): percentage damage caused to the plant, LOLPE POST (Lolium perenne (LOLPE)) | percentage damage caused to the plant, LOLPE PRE (Lolium perenne (LOLPE)) | percentage damage caused to the plant, SETFA POST (Setaria faberi (SETFA)) | percentage damage caused to the plant, SETFA PRE (Setaria faberi (SETFA)) | percentage damage caused to the plant, ALOMY POST [1] | percentage damage caused to the plant, ALOMY PRE [1] | percentage damage caused to the plant, ECHCG POST [2] | percentage damage caused to the plant, ECHCG PRE [2] | percentage damage caused to the plant, AVEFA POST (Avena fatua (AVEFA)) | percentage damage caused to the plant, AVEFA PRE (Avena fatua (AVEFA))

CC#Cc1cc(C)c(C2=C(OC(=O)C3CC3)CC3(CCN(C(C)=O)CC3)CC2=O)c(C)c1 [Compound P15]
5 (5=80-100%): percentage damage caused to the plant, LOLPE POST (Lolium perenne (LOLPE)) | percentage damage caused to the plant, LOLPE PRE (Lolium perenne (LOLPE)) | percentage damage caused to the plant, SETFA POST (Setaria faberi (SETFA)) | percentage damage caused to the plant, SETFA PRE (Setaria faberi (SETFA)) | percentage damage caused to the plant, ALOMY POST [1] | percentage damage caused to the plant, ALOMY PRE [1] | percentage damage caused to the plant, ECHCG POST [2] | percentage damage caused to the plant, ECHCG PRE [2] | percentage damage caused to the plant, AVEFA POST (Avena fatua (AVEFA)) | percentage damage caused to the plant, AVEFA PRE (Avena fatua (AVEFA))

CC#Cc1cc(C)c(C2C(=O)CC3(CCN(C(=O)C(C)(C)C)CC3)CC2=O)c(C)c1 [Compound A12]
5 (5=80-100%): percentage damage caused to the plant, LOLPE POST (Lolium perenne (LOLPE)) | percentage damage caused to the plant, LOLPE PRE (Lolium perenne (LOLPE)) | percentage damage caused to the plant, SETFA POST (Setaria faberi (SETFA)) | percentage damage caused to the plant, SETFA PRE (Setaria faberi (SETFA)) | percentage damage caused to the plant, ALOMY POST [1] | percentage damage caused to the plant, ALOMY PRE [1] | percentage damage caused to the plant, ECHCG POST [2] | percentage damage caused to the plant, ECHCG PRE [2] | percentage damage caused to the plant, AVEFA POST (Avena fatua (AVEFA)) | percentage damage caused to the plant, AVEFA PRE (Avena fatua (AVEFA))

CC#Cc1cc(C)c(C2C(=O)CC3(CCN(C(=O)C(C)C(F)(F)F)CC3)CC2=O)c(C)c1 (stereo not drawn) [Compound A24]
5 (5=80-100%): percentage damage caused to the plant, LOLPE POST (Lolium perenne (LOLPE)) | percentage damage caused to the plant, LOLPE PRE (Lolium perenne (LOLPE)) | percentage damage caused to the plant, SETFA POST (Setaria faberi (SETFA)) | percentage damage caused to the plant, SETFA PRE (Setaria faberi (SETFA)) | percentage damage caused to the plant, ALOMY POST [1] | percentage damage caused to the plant, ALOMY PRE [1] | percentage damage caused to the plant, ECHCG POST [2] | percentage damage caused to the plant, ECHCG PRE [2] | percentage damage caused to the plant, AVEFA POST (Avena fatua (AVEFA)) | percentage damage caused to the plant, AVEFA PRE (Avena fatua (AVEFA))
